{"source": "patent US9075060B2", "about": "“Methods for diagnosing oral or oral-pharyngeal cancer” (Technion Research & Development Foundation Limited, priority 2009, dated 2015)", "key": {"[1]": {"target": "T1, TSPO (Homo sapiens, UniProt P30536)", "T1 construct": "Assays of [^3H]; host or cells: SCC-25 and SCC-15 human oral cancer cell lines", "T1 sequence (P30536 whole entry)": "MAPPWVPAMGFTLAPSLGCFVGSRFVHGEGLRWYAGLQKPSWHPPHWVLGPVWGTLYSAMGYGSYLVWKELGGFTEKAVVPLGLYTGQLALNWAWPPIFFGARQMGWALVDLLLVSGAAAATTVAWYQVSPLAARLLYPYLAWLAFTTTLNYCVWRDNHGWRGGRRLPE", "assay": "[3H]PK 11195 binding to membranes of SCC-15 cells, Scatchard analysis", "details": "mean±SD, n=16", "procedure": "(§1) Assays of [^3H] […] After 80 minute incubation at 4° C., the samples were filtered through Whatman CF/C filters using a vacuum system, washed three times with 4 ml of 5 mM ice cold phosphate buffer and placed in vials containing 4 ml of CytoScint™ (MP Biomedicals, Costa Mesa, Calif.). Radioactivity was counted after 12 hours with a liquid scintillation analyzer. Specific binding was obtained by subtracting non-specific binding from total binding."}, "[2]": {"target": "T1, TSPO", "assay": "[3H]PK 11195 binding to membranes of SCC-25 cells, Scatchard analysis", "details": "mean±SD, n=7", "procedure": "as §1"}}}
{"smiles": "CCC(C)N(C)C(=O)c1cc2ccccc2c(-c2ccccc2Cl)n1", "note": "(centres unmarked) [[^3H]PK 11195, PK 11195]", "values": [{"measurement": "Bmax (maximal binding capacity)", "setting": "[1]", "value": "6956±549", "unit": "fmoles/mg protein"}, {"measurement": "Bmax (maximal binding capacity)", "setting": "[2]", "value": "3133±643", "unit": "fmoles/mg protein"}]}
